# Measured values as given in patent US20190231761A1, “COMPOSITIONS AND METHODS FOR TARGETING FRUCTOSE ENZYMES AND TRANSPORTERS FOR THE TREATMENT OF CANCER” (Duke University, priority 2018, published 2019).
# Columns and labels:
# LV-HCT116 cells = test: intravenous injection of liver-derived HCT116 (LV-HCT116), tumors in the liver; format: in vivo, NOD/SCID mice; conditions: 5-Fluorouracil 100 mg/kg, Oxaliplatin 6 mg/kg, intraperitoneal twice a week; compared with ALDOB knockdown or fructose-restricted diet
# Excerpt: FIG. 41A is representative IVIS luciferase in vivo images of mice with intravenous injection of liver-derived HCT116 cells with or without ALDOB knockdown. FIG. 41B are bright field and fluorescent (mCherry) images of livers of mice with intravenous injection of liver-derived HCT116 cells with or without ALDOB knockdown. FIG. 41C is a graph showing quantification of liver metastasis of mice with intravenous injection of liver-derived HCT116 cells with or without ALDOB knockdown, and show knockdown of ALDOB suppressed CRC liver lesions. FIG. 41D are representative IVIS luciferase in vivo images of mice with intravenous injection of liver-derived HCT116 with fructose diet. FIG. 41E are bright field and fluorescent (mCherry) images of livers of mice with intravenous injection of liver-derived HCT116 with fructose diet. FIG. 41F is a graph of quantification of liver metastasis of mice with intravenous injection of liver-derived HCT116 with fructose diet that show mice fed with fructose-restricted diet suppressed liver lesions. […] FIG. 41I is a graph showing quantification of liver lesions. […] Error bars denote SEM of 3 mice per group. **, p<0.01; ***, p<0.001. p-value was calculated based on one-way ANOVA. […]
# CRC cells = test: KHK knockdown in CRC cells transplanted into mouse cecum, liver metastasis; format: in vivo; conditions: IVIS luciferase images, quantification of liver metastasis
# Procedure: FIG. 42A-42B illustrates KHK knockdown suppresses liver metastasis. FIG. 42A is a Western blot showing KHK knockdown efficiency. FIG. 42B are representative IVIS luciferase in vivo images, bright field and fluorescent images of livers, and quantification of liver metastasis. Error bars denote SEM of 5 mice per group. p-values were calculated based on one-way ANOVA. ***, p<0.001.
# To determine if silencing ketohexokinase (KHK) can suppress liver metastases, KHK was knocked down using shRNA nucleic acid sequence SEQ ID NO:4 (FIG. 42A) in CRC cells and the cells were transplanted into the mouse cecum using the methods described in Example 6 with respect to ALDOB knockdown.
# HCT116 cells = test: cecum injection model, CRC liver metastasis, HCT116 cells with ALDOB knockdown; format: in vivo, NOD/SCID mice; conditions: cecum-injected HCT116 cells with ALDOB knockdown; control vectors 5 out of 5 mice
# Procedure: (§1) Tumor-bearing mice were treated with 5-Fluorouracil (Sigma, St. Louis, Mo.) at a dose of 100 mg/kg, Oxaliplatin (Sigma, St. Louis, Mo.) at a dose of 6 mg/kg, 2-deoxyglucose (Sigma, St. Louis, Mo.) at a dose of 500 mg/kg or normal saline as vehicle control through intraperitoneal route twice a week. 2×10^6 cells carrying a luciferase/mCherry or luciferase/GFP vector were injected into the mice for cecum injection model and intrahepatic injection model. 5×10^5 cells were injected for intravenous injection. Luciferase signal was tracked in vivo using the IVIS luciferase imaging system 200 (Xenogen) for tumor development. Liver metastases were evaluated based on mCherry signals by an OV100 microscope (Olympus) after scarifying the mice.
# (§2) To assess the contribution of ALDOB to fructose metabolism, ALDOB was knocked down in CRC cells using two shRNAs and validated the knockdown efficiencies by Western blot (FIG. 23). ALDOB lentiviral shRNA constructs were purchased from Sigma Mission shRNA dataset. The lentiviral vectors were co-transfected with helper plasmids into 293T cells. The lentiviral vectors were transfected into 293T cells. The viral supernatant was collected 48 hours after transfection and was used to infect CRC cells. […]
# CRC119 cells = test: cecum injection model, CRC liver metastasis, CRC119 cells with ALDOB knockdown; format: in vivo, NOD/SCID mice; conditions: cecum-injected CRC119 cells with ALDOB knockdown; control vectors 5 out of 5 mice
# Procedure: as §1, §2
# CRC57 cells = test: cecum injection model, CRC liver metastasis, CRC57 cells with ALDOB knockdown; format: in vivo, NOD/SCID mice; conditions: cecum-injected CRC57 cells with ALDOB knockdown; control vectors 5 out of 5 mice
# Procedure: as §1, §2
Compound,benefit in terms of tumor suppression or survival (LV-HCT116 cells),metastatic CRC growth in the liver (CRC cells),mice that developed detectable liver metastases (HCT116 cells),mice that developed detectable liver metastases (CRC119 cells),mice that developed detectable liver metastases (CRC57 cells)
O=c1[nH]cc(F)c(=O)[nH]1 [5-Fluorouracil],less benefit,,,,
O=C1[O][Pt]2([NH][C@@H]3CCCC[C@H]3[NH]2)[O]C1=O [Oxaliplatin],less benefit,,,,
SEQ ID NO:4: shRNA against human fructokinase (KHK) (CCGGCCTAAGGAGGACTCGGAGATACTCGAGTATCTCCGAGTCCTCCTTAGGTTTTTG),,significantly suppressed,,,
"shRNA1: shRNA against human ALDOB, Sigma Mission lentiviral construct (CCGGCTCAGAAATTGCCCAGAGCATCTCGAGATGCTCTGGGCAATTTCTGAGTTTTTG)",,,2 out of 5 mice,2 out of 5 mice,2 out of 5 mice
"shRNA2: shRNA against human ALDOB, Sigma Mission lentiviral construct (CCGGGTGGGAATCAAGTTAGACCAACTCGAGTTGGTCTAACTTGATTCCCACTTTTTG)",,,2 out of 5 mice,1 out of 5 mice,2 out of 5 mice
